Legend:
mushroom tyrosinase = assay: Mushroom tyrosinase inhibition assay; format: biochemical
Procedure: 60 μl of a 1 M phosphate buffer (pH 6.8), 10 μl of a sample solution, and 20 μl of 500 U/ml mushroom tyrosinase were sequentially added, and then incubated at room temperature for 5 minutes. After incubation, 60 μl of an aqueous solution containing 1 mM L-tyrosine was added to initiate a reaction. The reaction was performed at 37° C. for 30 minutes, and absorbance was measured at 490 nm. Mushroom tyrosinase inhibition activity was calculated by the following equation.
Mushroom tyrosinase inhibition activity (%)=(B−A)/A×100
(§1) A: OD490 value of treated group
B: OD490 value of blank control

[1] = test system: tyrosinase in B16F10 cells; assay: Tyrosinase inhibition activity in B16F10 cells; format: cell-based, mouse; details: α-MSH for one day, then 0.625, 1.25 and 2.5 mM, measured after 24 and 48 hours (FIG. 3)
Procedure: Cultured cells were harvested by adding […]. After harvesting, 500 μl of a cell lysis buffer (10 mM sodium phosphate buffer containing 1% Triton X-100 and 0.1 mM PMSF) was added to the harvested cells. To lyse the cells, sonication was performed on the cells and subsequently the cells were incubated on ice for 30 minutes. The lysed cells were centrifuged at 13000 rpm for 30 minutes, and the obtained cell lysate was used to measure tyrosinase activity.
To evaluate the inhibitory efficacy of verbenone against tyrosinase in B16F10 mouse melanoma cells, B16F10 cells were treated with α-MSH for one day to increase tyrosinase. Then, the cells were treated with verbenone at concentrations of 0.625, 1.25 and 2.5 mM, respectively, and tyrosinase activity was measured after 24 and 48 hours, respectively.

[2] = test system: TRP-1, TRP-2, tyrosinase and MITF; assay: Western blot of melanogenesis-related proteins in B16F10 cells; format: cell-based, mouse
Procedure: After 24 hours, the cells were treated with verbenone at concentrations of 0.625, 1.25, and 2.5 mM, respectively, followed by culturing for 72 hours. The cultured cells were harvested and washed three times with PBS. Then, to lyse the cells, 500 μl of a lysis buffer was added to the cells and the cells were sonicated, followed by incubation for 30 minutes. After cell lysis, centrifugation was performed at 12,000 rpm and 4° C. for 30 minutes to obtain a supernatant. Protein concentration was quantified using bovine serum albumin (BSA) as a standard. Equivalent amounts of the denatured lysates were loaded onto a 12% sodium dodecyl sulfate-polyacrylamide gel, and electrophoresis was performed at 45 mA to separate proteins. After sodium dodecyl sulfate-polyacrylamide gel electrophoresis (SDS-PAGE), the separated proteins present in the gel were transferred onto a membrane at 150 V for 80 minutes. Then, blocking of the membrane was performed for overnight using TTBS (TBS+0.1% Tween 20) solution containing 5% skim milk. Primary antibodies against melanogenesis-related proteins and actin were prepared in a ratio of 1:1,000, and a primary antibody reaction was performed at room temperature for 3 hours. Anti-rabbit IgG and anti-mouse IgG were used as secondary antibodies and diluted 1:5,000. A secondary antibody reaction was performed at room temperature for 1 hour. […]

B 16F10 melanoma cells = assay: Measurement of melanin content in B16F10 cells; format: cell-based, mouse
Procedure: B 16F10 melanoma cells, obtained from mice, were used as melanin-producing cells. The cultured B 16F10 cells were treated with […] α-melanocyte-stimulating hormone (α-MSH) (a control group). After 1 day, 2.5, 1.25, 0.625 mM verbenone and 2 mM arbutin (a positive control group) were added to the cells, the cells were cultured for 1 day and 2 days, respectively (experimental groups). The cultured cells were washed twice with PBS and harvested by centrifugation at 1500 rpm for 5 minutes. 300 ill of 1 N NaOH containing 10% DMSO was added to the cell pellet and then incubated at 80° C. for 1 hour to dissolve melanin. Melanin content was calculated by the following equation.
Melanin content (%)=A/B×100
as §1
B: OD490 value of non-treated group

`O=c1cc(CO)occ1O` [kojic acid, reference compound] was tested, and the “mushroom tyrosinase inhibition activity” value (mushroom tyrosinase; kojic acid control at 200, 400 or 800 μM (FIG. 2)) was “observed in a concentration-dependent manner”.
`CC1=CC(=O)[C@@H]2C[C@H]1C2(C)C` [verbenone] was tested, and the “tyrosinase activity in B16F10 cells” value [1] was “inhibited tyrosinase in B16F10 cells”, the “expression levels of the melanogenesis-related proteins” value ([2]; 20 nM α-MSH for 24 hours, then 0.625, 1.25, 2.5 mM, western blotting (FIG. 6A)) was “reduced in the verbenone-treated group in a concentration-dependent manner” and the “expression levels of melanogenesis-related proteins TRP-1, TRP-2, tyrosinase and MITF” value ([2]; without α-MSH, 0.625, 1.25, 2.5 mM, 72 hours, western blotting (FIG. 6B)) was “decreased by verbenone in a concentration-dependent manner”. The “color of the cell pellet” value (B 16F10 melanoma cells; 20 nM α-MSH + 0.625, 1.25, 2.5 mM verbenone (FIG. 5)) was “weakened by verbenone in a concentration-dependent manner”, the “change in melanin content in B 16F10 cells” value (B 16F10 melanoma cells; screen of six rosemary components, various concentrations, 72 hours, 490 nm, compared to arbutin-treated cells (FIG. 1)) was “most significantly decreased” and the “melanin content in B16F10 cells” value (B 16F10 melanoma cells; α-MSH 24 hours, then 0.625, 1.25 and 2.5 mM, measured after 24 and 48 hours (FIG. 4)) was “reduced by verbenone in B16F10 cells in a concentration-dependent manner”. For the same compound, the “mushroom tyrosinase inhibition activity” value (mushroom tyrosinase; 2.5 and 5 mM verbenone (FIG. 2)) was “no inhibitory effect was observed”.

— US20180353403A1, “SKIN-WHITENING COSMETIC COMPOSITION CONTAINING ROSEMARY-DERIVED VERBENONE AS ACTIVE INGREDIENT” (Jeju National University Industry-Academic Cooperation …, priority 2014, published 2018)
